Where a name gives a salt, the structure may show the parent alone.
Row | melting point | Structure (SMILES)
1 | 203.1 to 203.2 °C | Nc1cc(C(F)(F)F)ccc1-c1cc(Nc2ccc3ncsc3c2)ncn1 [[6-(2-Amino-4-trifluoromethylphenyl)pyrimidin-4-yl]benzothiazol-6-ylamine]
2 | 220 to 222 °C | CC(C)(C)c1ccc(-c2cc(Nc3ccc4ncsc4c3)nc(N)n2)cc1.Cl [N^4-Benzothiazol-6-yl-6-(4-tert-butylphenyl)pyrimidine-2,4-diamine hydrochloride]
3 | 138 to 140 °C | CC(C)(C)c1ccc(-c2cc(Nc3ccc4[nH]ccc4c3)nnc2-c2ccccc2)cc1 [[5-(4-tert-Butylphenyl)-6-phenyl-pyridazin-3-yl]-(1H-indol-5-yl)-amine]
4 | 192.1 to 192.2 °C | FC(F)(F)c1ccc(-c2cc(Nc3ccc4scnc4c3)ncn2)cc1 [Benzothiazol-5-yl-[6-(4-trifluoromethylphenyl)pyrimidin-4-yl]amine]
5 | 199 to 202 °C | CC(C)(C)c1ccc(-c2cc(Nc3ccc4c(c3)OCCO4)ncn2)cc1 [[6-(4-tert-Butylphenyl)pyrimidin-4-yl]-(2,3-dihydrobenzo[1,4]dioxin-6-yl)amine]
6 | 243 °C | FC(F)(F)c1ccc(-c2cc(Nc3ccc4ncsc4c3)nnc2-c2ccc(C(F)(F)F)cc2)cc1 [benzothiazol-6-yl-[5,6-bis-(4-trifluoromethylphenyl)pyridazin-3-yl]amine]
7 | 184 to 187 °C | COc1cccc(Nc2cc(-c3ccc(C(C)(C)C)cc3)ncn2)c1 [[6-(4-tert-butylphenyl)pyrimidin-4-yl]-(3-methoxyphenyl)amine]
8 | 237 °C | CC(C)(C)c1ccc(-c2cc(Nc3ccc4ncsc4c3)ncn2)cc1 [benzothiazol-6-yl-[6-(4-tert-butylphenyl)pyrimidin-4-yl]amine]
9 | 215 to 217 °C | COc1ccc(-c2nnc(Nc3ccc4cccnc4c3)cc2-c2ccc(C(F)(F)F)cc2)cc1 [Example 89, [6-(4-Methoxyphenyl)-5-(4-trifluoromethylphenyl)pyridazin-3-yl]-[quinolin-7-yl]amine]
10 | 238 to 240 °C | CC(C)(C)c1ccc(-c2cc(Nc3ccc4[nH]ccc4c3)ncn2)cc1 [Example 54]
11 | 194 to 196 °C | CC(C)(C)c1ccc(-c2cc(Nc3ccc4cc[nH]c4c3)ncn2)cc1 [Example 48]
12 | 293 to 295 °C | CC(C)(C)c1ccc(-c2cc(Nc3ccc4ncsc4c3)nnc2-c2ccccc2)cc1 [Benzothiazol-6-yl-[5-(4-tert-butylphenyl)-6-phenylpyridazin-3-yl]amine]
13 | 212 to 213 °C | FC(F)(F)c1ccc(-c2cc(Nc3ccc4ccccc4c3)ncn2)cc1 [Example 70]
14 | 230 to 232 °C | CC(C)(C)c1ccc(-c2cc(Nc3ccc4c(c3)CCCC4=O)ncn2)cc1 [6-[6-(4-tert-butylphenyl)pyrimidin-4-ylamino]-3,4-dihydro-2H-naphthalen-1-one]
15 | 166 °C | CC(C)(C)c1ccc(-c2cc(Nc3ccccc3)ncn2)cc1 [[6-(4-tert-butylphenyl)pyrimidin-4-yl]phenylamine]
16 | 250 to 252 °C | CC(C)(C)c1ccc(-c2cc(Nc3ccc4nn[nH]c4c3)ncn2)cc1 [(3H-benzotriazol-5-yl)-[6-(4-tert-butylphenyl)pyrimidin-4-yl]amine]

Continued, compound first:

Row | Structure (SMILES) | melting point
17 | CS(=O)(=O)c1cccc(Nc2cc(-c3ccc(C(F)(F)F)cc3)ncn2)c1 [(3-Methanesulfonylphenyl)-[6-(4-trifluoromethylphenyl)pyrimidin-4-yl]amine] | 204 to 205 °C
18 | FC(F)(F)c1ccc(-c2cc(Nc3ccc(Cl)c(Cl)c3)ncn2)cc1 [(3,4-dichlorophenyl)-[6-(4-trifluoromethylphenyl)pyrimidin-4-yl]amine] | 178 to 180 °C
19 | FC(F)(F)c1ccc(-c2cc(Nc3cccc4ccccc34)ncn2)cc1 [Example 76] | 232 to 233 °C
20 | FC(F)(F)c1ccc(-c2cc(Nc3ccc(Cl)c(C(F)(F)F)c3)ncn2)cc1 [(4-chloro-3-trifluoromethylphenyl)-[6-(4-trifluoromethylphenyl)pyrimidin-4-yl]amine] | 172 to 175 °C
21 | CC(=O)N1CC(C)(C)c2ccc(Nc3cc(-c4ccc(C(F)(F)F)cc4)ncn3)cc21 [1-{3,3-Dimethyl-6-[6-(4-trifluoromethylphenyl)pyrimidin-4-ylamino]-2,3-dihydroindol-1-yl}ethanone] | 227 to 230 °C
22 | Cc1ccc(Nc2cc(-c3ccc(C(F)(F)F)cc3)ncn2)cc1C [(3,4-dimethylphenyl)-[6-(4-trifluoromethylphenyl)pyrimidin-4-yl]amine] | 154 to 156 °C
23 | Cc1cc(O)nc2cc(Nc3cc(-c4ccc(C(F)(F)F)cc4)ncn3)ccc12.Cl [4-Methyl-7-{[6-(4-trifluoromethylphenyl)pyrimidin-4-yl]amino}quinolin-2-ol, hydrochloride] | 373 °C (dec.)
24 | FC(F)(F)c1ccc(-c2cc(Nc3ccc4cccnc4c3)ncn2)cc1 [Quinolyl-7-yl-[6-(4-trifluoromethylphenyl)pyrimidin-4-yl]amine] | 260 °C
25 | COc1ccc(Nc2cc(-c3ccc(C(F)(F)F)cc3)ncn2)cn1 [(6-methoxypyridin-3-yl)-[6-(4-trifluoromethylphenyl)pyrimidin-4-yl]amine] | 123 to 127 °C
26 | Cc1ccccc1Nc1cc(-c2ccc(C(F)(F)F)cc2)ncn1 [Example 64] | 117 to 119 °C
27 | FC(F)(F)c1ccc(-c2cc(Nc3cccc4ncccc34)ncn2)cc1 [Example 74] | 238 to 239 °C
28 | Cc1nc2cc(Nc3cc(-c4ccc(C(F)(F)F)cc4)ncn3)ccc2s1 [(2-methylbenzothiazol-5-yl)-[6-(4-trifluoromethylphenyl)pyrimidin-4-yl]amine] | 219.5 to 220.5 °C
29 | Cc1ccc(Nc2cc(-c3ccc(C(F)(F)F)cc3)ncn2)cc1 [Example 60] | 159 to 160 °C
30 | Cc1c(Cl)cccc1Nc1cc(-c2ccc(C(F)(F)F)cc2)ncn1 [Example 57] | 148 to 150 °C
31 | FC(F)(F)c1ccc(-c2cc(Nc3cccnc3Cl)ncn2)cc1 [(2-chloropyridin-3-yl)-[6-(4-trifluoromethylphenyl)pyrimidin-4-ylamine] | 134 to 135 °C
32 | Nc1ccc2cccc(Nc3cc(-c4ccc(C(F)(F)F)cc4)ncn3)c2n1 [N^8-[6-(4-Trifluoromethylphenyl)pyrimidin-4-yl]quinoline-2,8-diamine] | 211 to 213 °C
33 | FC(F)(F)c1ccc(-c2cc(Nc3cccc4cccnc34)ncn2)cc1 [Example 73] | 162 to 163 °C
34 | FC(F)(F)c1ccc(-c2cc(Nc3cccc4[nH]ccc34)ncn2)cc1 [Example 43] | 222 to 224 °C

Row | Structure (SMILES) | melting point
35 | FC(F)(F)c1ccc(-c2cc(Nc3cccc4ccc(Cl)nc34)ncn2)cc1 [(2-Chloroquinolin-8-yl)-[6-(4-trifluoromethylphenyl)pyrimidin-4-yl]amine] | 240 °C
36 | FC(F)(F)c1ccc(-c2cc(Nc3cnc4ccccc4c3)ncn2)cc1 [Example 50] | 262 to 263 °C
37 | CC(C)(C)c1ccc(-c2cc(Nc3ccc4c(c3)OCCO4)nc(N)n2)cc1 (as salt: hydrochloride) [[2-Amino-6-(4-tert-butylphenyl)pyrimidin-4-yl]-(2,3-dihydrobenzo[1,4]-dioxin-6-yl)amine hydrochloride] | 221 to 224 °C
38 | FC(F)(F)c1ccc(-c2cc(Nc3ccc4c(c3)OCCO4)ncn2)cc1 [(2,3-dihydrobenzo[1,4]dioxin-6-yl)-[6-(4-trifluoromethylphenyl)pyrimidin-4-yl]amine] | 167 to 168 °C
39 | FC(F)(F)c1ccc(-c2cc(Nc3ccc4[nH]ncc4c3)ncn2)cc1 [(1H-indazol-5-yl)-[6-(4-trifluoromethylphenyl)pyrimidin-4-yl]amine] | 224 to 226 °C
40 | CC(=O)Nc1ccc(Nc2cc(-c3ccc(C(F)(F)F)cc3)ncn2)cc1 [Example 66] | 236 to 238 °C
41 | Cc1ccc(Cl)cc1Nc1cc(-c2ccc(C(F)(F)F)cc2)ncn1 [Example 65] | 144 to 146 °C
42 | Nc1nc2c(Nc3cc(-c4ccc(C(F)(F)F)cc4)ncn3)cccc2s1 [N^4-[6-(4-Trifluoromethylphenyl)pyrimidin-4-yl]benzothiazole-2,4-diamine] | 225 to 227 °C
43 | CC(C)(C)c1ccc(-c2cc(Nc3cccc4[nH]ccc34)ncn2)cc1 [Example 46] | 241 to 242 °C
44 | FC(F)(F)c1ccc(-c2cc(Nc3ccc4c(n3)NCCC4)ncn2)cc1 [(5,6,7,8-tetrahydro[1,8]naphthyridin-2-yl)-[6-(4-trifluoromethylphenyl)pyrimidin-4-yl]amine] | 168 °C
45 | FC(F)(F)c1ccc(-c2cc(Nc3ccc(Cl)cc3)ncn2)cc1 [(4-chlorophenyl)-[6-(4-trifluoromethylphenyl)pyrimidin-4-yl]amine] | 193 to 196 °C
46 | FC(F)(F)c1ccc(-c2cc(Nc3ccc4ccc(Cl)nc4c3)ncn2)cc1 [(2-Chloroquinolin-7-yl)-[6-(4-trifluoromethylphenyl)pyrimidin-4-yl]amine] | 233 °C
47 | OCc1cc2cccc(Nc3cc(-c4ccc(C(F)(F)F)cc4)ncn3)c2[nH]1 [{7-[6-(4-Trifluoromethylphenyl)pyrimidin-4-ylamino]-1H-indol-2-yl}methanol] | 221 to 223 °C
48 | CSc1cccc(Nc2cc(-c3ccc(C(F)(F)F)cc3)ncn2)c1 [(3-methylsulfanylphenyl)-[6-(4-trifluoromethylphenyl)pyrimidin-4-yl]amine] | 130 to 132 °C
49 | OCCOc1ccc(Nc2cc(-c3ccc(C(F)(F)F)cc3)ncn2)cn1 [2-{5-[6-(4-Trifluoromethylphenyl)pyrimidin-4-ylamino]pyridin-2-yloxy}ethanol] | 189.5 to 190.5 °C
50 | FC(F)(F)c1ccc(-c2cc(Nc3ccc4ncccc4c3)ncn2)cc1 [Example 72] | 268 to 269 °C
51 | FC(F)(F)c1ccc(-c2cc(Nc3ccccc3)ncn2)cc1 [phenyl-[6-(4-trifluoromethylphenyl)pyrimidin-4-yl]amine] | 184 to 186 °C
52 | CC(=O)Nc1nc2c(Nc3cc(-c4ccc(C(F)(F)F)cc4)ncn3)cccc2s1 [N-{4-[6-(4-Trifluoromethylphenyl)pyrimidin-4-ylamino]benzothiazol-2-yl}acetamide] | > 250 °C

— patent US7053088B2, “Vanilloid receptor ligands and their use in treatments” (Amgen Inc., priority 2002, dated 2006)
